What was measured:
wild type human AR = target: T1, wild type human AR (Homo sapiens, UniProt P10275); test: Yeast AR-mediated β-galactosidase reporter assay, control strain (wild type AR alone); assay type: cell-based; settings: without FKBP52
T1 construct: expressed in transfected cells; host or cells: Saccharomyces cerevisiae W303 (PDR5 deleted)
T1 sequence (P10275 1-920): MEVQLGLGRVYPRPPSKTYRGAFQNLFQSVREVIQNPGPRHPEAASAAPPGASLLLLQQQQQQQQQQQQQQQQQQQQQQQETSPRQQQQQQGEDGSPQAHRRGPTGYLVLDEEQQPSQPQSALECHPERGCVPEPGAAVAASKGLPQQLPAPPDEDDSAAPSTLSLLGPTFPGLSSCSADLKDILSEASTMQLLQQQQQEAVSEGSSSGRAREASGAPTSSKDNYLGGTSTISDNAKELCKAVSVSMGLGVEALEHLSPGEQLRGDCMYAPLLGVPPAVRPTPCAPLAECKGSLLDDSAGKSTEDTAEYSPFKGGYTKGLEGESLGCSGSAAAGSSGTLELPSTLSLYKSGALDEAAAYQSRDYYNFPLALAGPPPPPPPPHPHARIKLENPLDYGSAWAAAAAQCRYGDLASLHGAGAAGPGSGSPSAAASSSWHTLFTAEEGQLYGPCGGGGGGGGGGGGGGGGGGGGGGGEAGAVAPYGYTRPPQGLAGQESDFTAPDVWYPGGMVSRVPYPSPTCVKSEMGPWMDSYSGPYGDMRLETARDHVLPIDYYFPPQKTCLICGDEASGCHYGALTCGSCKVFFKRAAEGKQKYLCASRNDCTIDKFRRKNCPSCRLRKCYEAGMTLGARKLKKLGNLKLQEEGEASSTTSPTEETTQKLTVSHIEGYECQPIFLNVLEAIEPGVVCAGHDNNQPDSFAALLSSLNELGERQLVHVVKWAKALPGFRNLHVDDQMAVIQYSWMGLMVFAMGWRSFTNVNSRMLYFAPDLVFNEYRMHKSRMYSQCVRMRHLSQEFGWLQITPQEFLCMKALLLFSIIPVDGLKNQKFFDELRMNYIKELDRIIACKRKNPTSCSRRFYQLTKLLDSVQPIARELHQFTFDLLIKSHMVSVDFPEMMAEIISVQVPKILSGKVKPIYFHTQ
Source text: The yeast host strain used to make these four strains, W303, has his3, trp1 and ura3 mutations, so that growth on media lacking tryptophan, histidine and uracil requires the presence of all three plasmids. The URA3-marked steroid receptor-mediated β-galactosidase reporter plasmid (pUCΔss-26X) was the gift of Dr. Brian Freeman, University of Illinois. The pleiotropic drug resistance 5 (PDR5) gene was deleted in this strain, because PDR5 is an ATP-binding cassette transporter that could potentially transport the test compounds out of the cells, thereby hindering their identification. By deleting PDR5, this potential problem is avoided. […]
(§1) The strains were cultivated overnight using a shaking incubator in SC-HUW medium (synthetic complete medium lacking histidine, uracil and tryptophan). […] About one hour later, the plate was read in a luminometer. The measured RLU (relative light units) was normalized to the cell density of the cultures, at the time they were added to the plates, to give a measure of RLU/OD unit. […]
The inventors began testing compounds in the assay by starting with a standard concentration of about 50 μM for all compounds tested. […] The plates are incubated for approximately another 1-3 hours, preferable about 1 hour and 30 minutes, and the light emission is measured on a microplate luminometer (Luminoskan Ascent, Thermo Labsystems). […]

[1] = test system: FKBP52-enhanced AR function; test: Yeast AR-mediated β-galactosidase reporter assay, tester strain (AR-P723S + FKBP52); assay type: cell-based; settings: DHT-induced β-galactosidase reporter
Source text: To investigate FTA inhibitory activity, a modified yeast-based assay was created to screen an in-house compound library. The receptor-mediated β-galactosidase assays were initially based on published methods ((Riggs D L, et al., EMBO J., 22:1158-67 (2003); Cox M B, et al., Toxicol. Lett. 129:13-21 (2002) and Balsiger, H. A., and Cox, M. B., in Methods in Molecular Biology: The Nuclear Receptor Superfamily, vol. 505. Edited by I. J. McEwan. The Humana Press, Totowa, N.J. (2008)), however, the assay methods were modified substantially to allow use of a 96-well plate format. All cDNAs for the FKBP proteins were obtained from the laboratory of David Smith at the Mayo Clinic, Arizona. The AR-P723S mutant was originally described previously (Cheung-Flynn, J. et al. (2005)).
All receptors and FKBP proteins were expressed from a set of yeast expression vectors that are commercially available (Mumberg, D., et al., Gene 156: 119-122 (1995)). […]
as §1

effect on AR function alone (wild type human AR): does not affect AR function alone | inhibition of FKBP52-enhanced AR function [1]: inhibits FKBP52-enhanced AR function
Compound: Cc1ccc(NC(=O)c2ccccc2C(=O)O)cc1C [Compound 1]

Reference: patent US9782399B2, “Pharmaceutical compositions which inhibit FKBP52-mediated regulation of androgen receptor function and methods of using same” (The United States of America, as represented by the …, priority 2009, dated 2017)
